Source: EP4069192B1 (Solis Herrera, Arturo, priority 2019, dated 2021)
Values after ≈ are worked out from the molar mass of the structure shown.

What was measured:
[1] = intranasal spray, single 3 mg dose, women, before emergence from general anesthesia; cited from earlier work
[2] = test system: TNF-α production
Procedure: (§1) After 24 hours of incubation in 37°C/5%CO2 samples of leukocytes and supernatants were collected.
(§2) Cytokine levels were determined using ELISA kits (BD Biosciences, USA) for human IFNγ, TNF-α and IL-6 and DuoSet for human IL-3 (R&D Systems, USA) according to the producers' instructions. The optical density was measured at 450 nm using a Multiskan RC spectrophotometric reader (Thermo Labsystems, USA), Cytokine concentrations were expressed in pg/ml.

[3] = test system: IL-6 production
Procedure: as §1, §2

[4] = test system: IFN-γ production
Procedure: as §1, §2

[5] = test system: H1N1 virus; conditions: 0,002 mg/kg each 24 hours; 24 hours after treatment; 15000 treated vs 15000 control chicken, control turned down the production of eggs
[6] = test system: HS683 (human neuronal glioma cell line); conditions: HS-683, 48 hours, MTT
[7] = test system: cell proliferation; test: cells; conditions: Homo sapiens, read-out: doses that inhibit 50% of cell proliferation
[8] = rat, in vivo
[9] = test system: human PBLs (leukocytes of peripheral blood); conditions: 48 hours, MTT
Procedure: Thereby, cell viability was determined on the basis of the mitochondria-dependent reduction of MTT (3-[4,5-dimethyltiazol 2yl]-2,5-diphenyltetrazolium bromide) to formazan. […] Next cells were treated with 20 µl of MTT. After 3 hours of incubation at 37°C, the formazan blue formed in the cells was dissolved in 100 µl of SDS (sodium dodecylsulfate) for 3 hours in 37°C. The optical density was measured at 570 nm.
After the cytotoxicity tests LC50 (LC50-lethal concentration, 50%-dose required to kill half of the cells after a specified test duration) were estimated for each cell lines and PBLs (leukocytes of peripheral blood). Additionally for PBLs LC10 and LC5 were calculated.
On the basis of the results of MTT assay for human leukocytes the LC50, LC10 and LC5 were evaluated.

[10] = test system: WI-38 cells; test: cells; conditions: Homo sapiens, WI-38, 96 h
Procedure: (§3) Further, a proliferation test was prepared for the same three cell lines: WI-38, A549 and HS 683. 3x10^4 WI-38 cells and 2x10^4 A549 and HS 683. Cells were seeded into each wells in 96-well culture plates in appropriate culture medium with 10% FBS (fetal bovine serum). […] After 96 hours incubation in 37°C/5%CO2 MTT assay was performed for establishing the cell viability.

[11] = test system: HS-683; test: cells; conditions: Homo sapiens, Hs 683, 96 h
Procedure: as §3

[12] = test system: A549 cells; test: cells; conditions: Homo sapiens, A549, 96 h
Procedure: as §3

[13] = in vivo
[14] = test system: A549 (human lung adenocarcinoma epithelial cell line); conditions: A549, 48 hours, MTT
[15] = read-out: concentration that inhibits 50% of the proliferation

Structure (SMILES): CN1CCC[C@H]1c1cccnc1
- pain scores during the first day post-surgery [1]: significant reduction in pain scores
- risks of hypertension of tachycardia [1]: not increasing the risks
- effect on TNF-α production [2]: increases the level of cytokines in a dose-dependent manner
- effect on IL-6 production [3]: no effect
- effect on IFN-γ production [4]: strongly decreases the level of interferon in a dose-dependent manner
- production of eggs [5]: began to lay off eggs
- LC50 [6]: 3,5 mg/ml
- IC50 [7]: > 1000 µg/mL
- mortality [8]: 0,625 of 8 rats
- LC5 [9]: 0,5 mg/ml
- LC10 [9]: 1 mg/mL (≈ 6.16 mM)
- IC50 [10, 15]: 1000 µg/mL (≈ 6.16 mM)
- IC99 ([10]; read-out: concentration that inhibits a proliferation of 99%): 4500 µg/mL
- IC99 ([11]; read-out: concentration at which 99% of proliferation are inhibited): 5500 µg/mL
- IC50 [11, 15]: 2900 µg/mL (≈ 17.9 mM)
- IC50 [12, 15]: 2000 µg/mL (≈ 12.3 mM)
- IC99 ([12]; read-out: concentration that inhibits 99% of the proliferation): 5500 µg/mL
- healing effect [13]: increased healing effect
- LC50 [14]: 4,5 mg/ml
